# How the values were obtained:
# [1] = test system: iron/ascorbate induced lipid peroxidation; assay: Lipid peroxidation (LPO) model, heat-treated hepatic microsomes, TBA reactive substances; type: biochemical; conditions: rat hepatic microsomes, reaction started with 10 uM FeSO4; mean ± s.e.m., n = 3-5
# Method: Experiment 1: Lipid Peroxidation Model
# Preparation of hepatic microsomes.
# Male Wistar rats (200-220 g) obtained from Harlan Nederland B.V. (Horst, The Netherlands) were sacrificed by decapitation. Livers were removed and homogenized in ice-cold phosphate buffer (50 mM+0.1 mM EDTA, pH=7.4, 1:2 w/v). The homogenate was centrifuged at 10 000× g (20 min at 4° C.). Subsequently, the supernatant was centrifuged at 100 000× g for 60 min (4° C.). The pellet was resuspended in phosphate buffer and centrifuged again at 100 000× g (60 min, 4° C.). Finally the microsomal pellet was resuspended in phosphate buffer (2 g liver/ml) and 1 mL aliquots were stored at −80° C.
# Microsomes were thawed and resuspended in ice-cold Tris-HCl buffer (50 mM, pH=7.4 at 37° C.) and washed by centrifugation. The pellet was resuspended in 2 mL 50 mM Tris-HCl buffer and heated to 100° C. for at least 2 min to remove all enzymatic factors just before resuspending and diluting it in ice-cold Tris buffer to 1.5 mg/mL.
# Stock solutions of the flavonoids were freshly prepared in nitrogen-purged DMSO and nanopure water (1:1) just before use. The reaction was started by adding 10 uM freshly prepared FeSO4 in nitrogen-purged nanopure water. LPO was assayed by measuring thiobarbituric acid (TBA) reactive substances. At t=0, 5, 10, 15, 30, 45 and 60 min an 0.3 mL aliquot of the incubation was mixed with 2 mL of an ice-cold TBA-trichloroacetic acid-HCl-butylhydroxytoluene (BHT) solution to stop the reaction. After heating and centrifugation the absorbance at 535 vs 600 nm was determined. The TBA-trichloroacetic acid-HCl-butylhydroxytoluene solution was prepared by dissolving 41.6 mg TBA/10 ml trichloroacetic acid (16.8% w/v in 0.125 N HCl). To 10 ml TBA-trichloroacetic acid-HCl 1 ml BHT (1.5 mg/ml ethanol) was added.
# The IC50 was determined by measuring the % LPO inhibition at several concentrations and interpolating the 50% inhibition point.
# [2] = TEAC model (Trolox equivalent antioxidant capacity); conditions: concentration of Trolox equivalent to 1 mM test compound; mean ± S.D., n = 3-5
# Method: A solution of 2,2′-azino-bis(3-ethylbenzthiazoline-6-sulfonic acid) (1.23 mg/mL) and azobisamidinepropane (3.96 mg/mL) in 50 mM phosphate buffer (pH=7.4) was heated at 70° C. for 20 min. The amount of ABTS radicals was measured by determination of the absorbance at 734 nm.
# Stock solutions of the flavonoids were freshly prepared in nitrogen-purged DMSO and nanopure water (1:1) just before use. A calibration curve of Trolox ((+/−)-6-hydroxy-2,5,7,8-tetramethyl-chroman-2-carboxylic acid) was made in a concentration range from 0 to 20 μM. A mixture of 50 μL test compound and 950 μL ABTS^−+ solution was incubated at 37° C. for 5 min. Subsequently the absorbance at 734 nm was determined on a UV/VIS Spectrophotometer.
# The antioxidant-induced decrease in absorbance is directly related to the antioxidant capacity of the compound (solution) being tested.
# The Trolox equivalent antioxidant capacity (TEAC) is defined as the concentration (mM) of Trolox having an antioxidant capacity equivalent to 1 mM of the test compound.
# [3] = test system: isolated mouse left atrium; assay: Isolated mouse left atrium model: protection against doxorubicin-induced negative inotropy; conditions: 250 μM flavonoid with 35 μM doxorubicin, electrically paced mouse left atrium
# Method: Experiment 3: Isolated Mouse Left Atrium Model
# In order to determine the cardioprotective properties of the compounds in vitro, the protection against doxorubicin-induced negative inotropy was studied, using the isolated mouse left atrium model.
# The example compounds were tested for their protective effect on the negative inotropic action of doxorubicin on the isolated mouse left atrium. The testing model has been described earlier (de Jong et al.Ress Comm Chem Pathol Pharmacol 68, 275-289 (1990). In short, left atria were isolated from male Balb/c mice (18-22 g) and stimulated with square wave pulses of 3 ms duration at a frequency of 4 Hz. Incubation with […] doxorubicin causes a decrease in inotropy of 50% (after 1 h). Atria were incubated with 35 μM doxorubicin and 250 μM flavonoid. Inotropy was measured and expressed as % basal contractile force relative to t=0.
# [4] = test system: doxorubicin-induced cardiotoxicity; assay: Protection against doxorubicin-induced cardiotoxicity in vivo (ST-interval in ECG, telemetry); conditions: mice
# A2780 cells = assay: Interference with antitumor activity of doxorubicin, MTT assay; type: cell-based; conditions: A2780, 100 μM, 96 h
# Method: (§1) Experiment 5: Interference with the Antitumor Activity of Doxorubicin Because of the possible use of these compounds as adjuvants in the chemotherapy, it was checked whether the compounds influenced the negative effect of doxorubicin on cell growth. […] This observation further underlined the use of these compounds as adjuvant therapy in the protection of the side effects of cytostatics. On day 0 cultured OVCAR-3, MCF-7 and A2780 cells were plated at a density of 5000 cells/well for OCAR-3 and MCF-7 and 3000 cells/well for A2780 cells. […] After incubation of 96 h at 37° C. (day 5), growth inhibitory effects were evaluated using the standard MTT assay.
# MCF-7 cells = assay: as above; type: cell-based; conditions: MCF-7, 100 μM, 96 h
# Method: as §1
# OVCAR-3 cells = assay: as above; type: cell-based; conditions: OVCAR-3, 100 μM, 96 h
# Method: as §1
# [5] = test system: alloxan-induced diabetic rats; assay: Antidiabetic action in alloxan-induced diabetic rats; type: in vivo; conditions: 68 mg/kg i.p. for two weeks
# Method: In order to study the antidiabetic action of compound 9i (see FIG. 1 and the section “syntheses” above), the compound was studied in alloxan-induced diabetic rats. […] These diabetic rats were subsequently treated with compound 9i for two weeks (at 68 mg/kg, i.p.).
# [6] = test system: guinea pigs exposed to ozone; assay: Ozone exposure model for COPD, pulmonary neutrophil influx; type: in vivo; conditions: 1 ppm ozone 12 h then 12 h air, 68 mg/kg i.p.
# Source text: Chronic Obstructive Pulmonary Disease is associated with oxidative stress. There are strong indications that antioxidant therapy may be beneficial in COPD ([…] et al., Am. J. Resp. Crit. Care Med. 156, 341-358 (1997)). Not only the number of exacerbations decreases, but also the progressive decrease in lung function becomes less severe under treatment with an antioxidant like N-acetylcysteine. An animal model for COPD is ozone exposure. In contrast to asthma, COPD is characterized by a neutrophil influx. […] We studied the protective effect of compound 9i in this ozone exposure model. […] To this end compound 9[…].) was given (24 h, 12 h before ozone exposure and daily during the exposure to ozone/air) to guinea pigs that were exposed to 1 ppm ozone for 12 h which was followed by 12 h of air.
structure (smiles),measurement,setting,value
"O=c1c(O[C@@H]2O[C@H](CO)[C@@H](O)[C@H](O)[C@H]2O)c(-c2ccc(O)c(O)c2)oc2ccccc12 [Compound 9i, 3′,4′-dihydroxy-3-glucoseflavone]",IC50,[1],2800 ± 900 nM
same,TEAC,[2],4.9 ± 0.3 mM
same,Atrium protection (250 μM),[3],46%
same,potency as protector against doxorubicin-induced cardiotoxicity relative to monoHER,[4]; 68 mg/kg i.p.,at least 5 times
same,protection against doxorubicin-induced cardiotoxicity in vivo (in words),"[4]; 9i 68 mg/kg i.p., doxorubicin 4 mg/kg i.v. weekly, 6 weeks",significantly potent activity
same,9i 100 μM growth %,A2780 cells,97.7%
same,9i 100 μM growth %,MCF-7 cells,83.8%
same,9i 100 μM growth %,OVCAR-3 cells,86.8%
same,glucose plasma level compared to controls,[5],decrease in glucose plasma level
same,pulmonary neutrophil influx,[6],could be prevented
